# According to ChEMBL document CHEMBL2057208, “Benzoylbenzimidazole-based selective inhibitors targeting Cryptosporidium parvum and Toxoplasma gondii calcium-dependent protein kinase-1” (Bioorg Med Chem Lett, 2012):
# Active and inactive are the calls of the source. No cut-off for these calls is given here.
# Assays:
# Toxoplasma gondii = assay: Antiparasitic activity against Toxoplasma gondii up to 1 uM; assay type: functional, organism-based
# [1] = target: Tyrosine-protein kinase ABL1 (Homo sapiens, UniProt P00519); assay: Inhibition of human ABL
# Cryptosporidium parvum = assay: Antiparasitic activity against Cryptosporidium parvum up to 1 uM; assay type: functional, organism-based
# [2] = target: Proto-oncogene tyrosine-protein kinase Src (Homo sapiens, UniProt P12931); assay: Inhibition of human SRC
# [3] = Inhibition of Cryptosporidium parvum CDPK1
# [4] = target: T1, Calmodulin-domain protein kinase 1 (Toxoplasma gondii, UniProt Q9BJF5); assay: Inhibition of Toxoplasma gondii CDPK1
# T1 sequence (Q9BJF5 whole entry): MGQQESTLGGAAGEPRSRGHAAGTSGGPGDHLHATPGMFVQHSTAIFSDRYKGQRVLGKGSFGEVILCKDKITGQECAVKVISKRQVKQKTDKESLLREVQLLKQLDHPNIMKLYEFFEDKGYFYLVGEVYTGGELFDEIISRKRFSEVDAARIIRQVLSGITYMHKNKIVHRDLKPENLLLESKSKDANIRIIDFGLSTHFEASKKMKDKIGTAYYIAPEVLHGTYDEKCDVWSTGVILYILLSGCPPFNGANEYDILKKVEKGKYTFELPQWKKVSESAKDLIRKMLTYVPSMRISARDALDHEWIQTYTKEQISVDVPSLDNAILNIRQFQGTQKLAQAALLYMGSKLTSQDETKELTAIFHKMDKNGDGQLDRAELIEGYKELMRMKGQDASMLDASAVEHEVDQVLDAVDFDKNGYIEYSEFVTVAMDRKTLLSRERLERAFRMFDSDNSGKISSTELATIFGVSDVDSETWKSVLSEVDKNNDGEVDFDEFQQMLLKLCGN
# HL-60 = assay: cells; conditions: Homo sapiens
# Description: Cytotoxicity against human HL60 cells after 48 to 72 hrs by Alamar blue assay
# cells = conditions: Homo sapiens, CRL8155
# Description: Cytotoxicity against human CRL8155 cells after 48 to 72 hrs by Alamar blue assay
# Chain of Proto-oncogene tyrosine-protein kinase Src (P12931 2-536 limits assumed): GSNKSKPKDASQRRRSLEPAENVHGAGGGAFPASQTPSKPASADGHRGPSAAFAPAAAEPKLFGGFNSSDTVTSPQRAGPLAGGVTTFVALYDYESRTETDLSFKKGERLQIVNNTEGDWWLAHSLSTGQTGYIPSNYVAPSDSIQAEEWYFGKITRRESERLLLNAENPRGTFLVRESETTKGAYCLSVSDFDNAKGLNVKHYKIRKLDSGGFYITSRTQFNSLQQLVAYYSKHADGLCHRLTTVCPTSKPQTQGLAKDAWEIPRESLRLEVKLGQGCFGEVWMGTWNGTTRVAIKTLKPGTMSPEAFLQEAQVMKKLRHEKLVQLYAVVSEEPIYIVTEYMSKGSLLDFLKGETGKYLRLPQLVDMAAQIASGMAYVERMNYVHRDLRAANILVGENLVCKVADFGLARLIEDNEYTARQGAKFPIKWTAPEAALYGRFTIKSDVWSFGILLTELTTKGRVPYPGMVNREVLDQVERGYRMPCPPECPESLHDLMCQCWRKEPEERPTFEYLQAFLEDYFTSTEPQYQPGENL
# Chain of Tyrosine-protein kinase ABL1 (P00519 whole entry): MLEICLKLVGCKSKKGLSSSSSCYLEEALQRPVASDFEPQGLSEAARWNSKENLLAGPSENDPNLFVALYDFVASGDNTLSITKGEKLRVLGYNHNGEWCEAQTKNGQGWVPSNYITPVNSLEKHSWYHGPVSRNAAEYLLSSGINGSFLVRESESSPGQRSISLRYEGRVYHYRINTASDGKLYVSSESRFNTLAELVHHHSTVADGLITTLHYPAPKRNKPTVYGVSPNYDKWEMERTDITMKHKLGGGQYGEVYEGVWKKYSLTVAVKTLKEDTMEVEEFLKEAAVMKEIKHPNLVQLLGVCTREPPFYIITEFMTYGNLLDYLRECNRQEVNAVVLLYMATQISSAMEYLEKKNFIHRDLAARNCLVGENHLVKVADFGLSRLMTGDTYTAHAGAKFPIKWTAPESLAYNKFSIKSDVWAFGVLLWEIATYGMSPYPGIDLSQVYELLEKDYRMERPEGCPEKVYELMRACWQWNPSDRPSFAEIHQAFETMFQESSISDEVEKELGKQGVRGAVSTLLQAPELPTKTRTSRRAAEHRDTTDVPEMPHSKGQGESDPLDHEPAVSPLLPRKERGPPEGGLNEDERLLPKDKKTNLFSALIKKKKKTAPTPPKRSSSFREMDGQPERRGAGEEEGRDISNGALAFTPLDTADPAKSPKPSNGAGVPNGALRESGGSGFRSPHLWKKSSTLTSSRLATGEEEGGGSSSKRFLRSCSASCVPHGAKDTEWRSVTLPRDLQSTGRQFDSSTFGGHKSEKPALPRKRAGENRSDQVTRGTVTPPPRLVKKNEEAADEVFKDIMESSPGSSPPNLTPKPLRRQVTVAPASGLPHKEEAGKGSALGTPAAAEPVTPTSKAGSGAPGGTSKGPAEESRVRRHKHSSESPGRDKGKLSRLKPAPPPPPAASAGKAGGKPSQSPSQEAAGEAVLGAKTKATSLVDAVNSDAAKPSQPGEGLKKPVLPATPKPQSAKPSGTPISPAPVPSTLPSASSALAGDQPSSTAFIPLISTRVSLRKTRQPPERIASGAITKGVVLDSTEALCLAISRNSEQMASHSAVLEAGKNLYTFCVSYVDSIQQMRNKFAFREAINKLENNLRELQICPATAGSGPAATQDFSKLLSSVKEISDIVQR
compound,measurement,setting,value
Nc1nc2ccc(C(=O)c3ccccc3)cc2n1CC[C@@H]1CCCN1,Activity,Toxoplasma gondii,inactive
same,IC50,[1],> 10 µM
same,Activity,Cryptosporidium parvum,inactive
same,IC50,[2],> 10 µM
same,IC50,[3],0.03 µM
same,IC50,[4],0.029 µM
same,EC50,HL-60,> 30 µM
same,EC50,cells,> 30 µM
